Data as given in patent US20220273684A1, “Systems and Methods to Identify Pancreatic Ductal Adenocarcinoma and Uses Thereof” (The Board of Trustees of the Leland Stanford Junior …, priority 2021, published 2022).

Key:
[1] = tested on: acinar cell-derived PDAC cell lines; assay: Cell viability assay (MTT) after incubation with drug, acinar cell-derived PDAC cell lines; type: cell-based
Description: (§1) FIGS. 4A-4E illustrate exemplary data that acinar and ductal cell-derived pancreatic cancer cells have different sensitivities to multiple therapeutic agents in accordance with various embodiments of the invention. FIG. 4A illustrates an exemplary method to identify agents to treat specific types of tumors and/or treating an individual based on tumor signature. FIG. 4B illustrates a schematic of the experimental setup. FIG. 4C illustrates cell viability after a 24 hour incubation with 25 μM of GSK-3β inhibitor, TDZD-8. FIG. 4D illustrates cell viability after a 48 hour incubation with 1 mM of glucose analog, 2-DG. FIG. 4E illustrates cell viability after a 72 hour incubation with 100 μM of AKT kinase inhibitor, Capivasertib.
Turning to FIGS. 4A-4E, various embodiments are capable of identifying agents to treat specific types of tumors and/or treating an individual based on tumor signature. Specifically, FIG. 4A illustrates a method 400 to test one or more treatments against tumor-derived cells. At 402, many embodiments obtain one or more cultures of cells. […]
Turning back to FIG. 4A, after treatment, many embodiments assess cellular growth at 408. Cellular growth can be assessed manually or automatedly. […]

[2] = tested on: ductal cell-derived PDAC cell lines; assay: Cell viability assay (MTT) after incubation with drug, ductal cell-derived PDAC cell lines; type: cell-based; details: 72 hour incubation with 100 μM Capivasertib; ductal cell-derived relative to acinar cell-derived PDAC lines (FIG. 4E)
Description: as §1, with “Capivasertib. Turning to FIGS. 4A-4E, various embodiments are capable of identifying agents to treat specific types of tumors and/or treating an individual based on tumor signature. Specifically, FIG. 4A illustrates a method 400 to test one or more treatments against tumor-derived cells. At 402, many embodiments obtain one or more cultures of cells. In various embodiments, the derived tumor cells are obtained as an admixture of cells, while some embodiments obtain cells as a single type (e.g., healthy, acinar cell-derived, or ductal cell-derived). […] Cellular growth can be assessed manually or automatedly. […]” for “Capivasertib.”

## Cn1sc(=O)n(Cc2ccccc2)c1=O [TDZD-8]
[1]; 24 hour incubation with 25 μM TDZD-8, acinar cell-derived relative to ductal cell-derived PDAC lines (FIG. 4C)
  cell viability: increased viability

## NC1(C(=O)N[C@@H](CCO)c2ccc(Cl)cc2)CCN(c2ncnc3[nH]ccc23)CC1 [Capivasertib]
[2]
  cell viability: increased viability

## OCC1OC(O)CC(O)C1O (stereo not drawn) [2-DG]
[1]; 48 hour incubation with 1 mM 2-DG, acinar cell-derived relative to ductal cell-derived PDAC lines (FIG. 4D)
  cell viability: increased viability
